Results as given in patent publication US12605358B2, “Composition for preventing or treating nervous system diseases comprising compound that inhibits mTOR signaling pathway as active ingredient” (ALIAD BIOPHARMA, priority 2021, dated 2026).

How the values were obtained:
[1] = tested on: 5xFAD transgenic mice; assay: Neuroinflammation, Iba-1 staining of brain slices; format: in vivo; conditions: hippocampal dentate gyrus; compared to a 5xFAD-DMSO control group; FIG. 11
Protocol: (§1) 5xFAD animals were administered with HN-1703 at three doses for 14 days to male heterozygotes aged 6 months (all born within 3 days). The behaviors of mice were measured in a dark cycle in which the mice were active while alternating light and dark in a 12-hour cycle in a breeding room chamber, and the mice were freely accessible to food and water and bred in compliance with experimental animal ethical guidelines of Kyung Hee University. In each group, the HN-1703 was intraperitoneally injected at the same time once a day in a volume of 100 μl to 12 mice in a normal group (wild type littermate), 9 5xFAD mice in a vehicle (DMSO administration), 8 5xFAD mice in a 5 mg/kg administered group, 9 5xFAD mice in a 10 mg/kg administered group, and 9 5xFAD mice in a 20 mg/kg administered group. […] In a behavioral measurement room, humidity (40 to 60%) and temperature (22 to 26° C.) were maintained, and reflected light was maintained to avoid sound and light effects. Behavioral measures were measured in Y-maze, Morris Water Maze, and Passive Avoidance test for 18 days in sequence.
A brain slice immunostaining method was modified and used as described in Heo H et al. (J Ethnopharmacol, 2009). Mice were transcardially perfused with 4% PFA. […]

[2] = tested on: primary cultured cerebral neurons; assay: Neuron protective efficacy against Aβ toxicity (DAPI cell count); format: cell-based, rat; conditions: Aβ 0.5 or 1 μM, HN-1703 0.1 or 0.5 μM, 12 or 24 hours; Aβ alone reduced viability by 50% or more; FIGS. 5A, 5B
Protocol: Primary cultured neurons from the cerebral cortex of rat embryos (E16) were treated with […] or 1 μM Aβ and 0.1 μM or 0.5 μM HN-1703 for 12 or 24 hours. Cell viability was evaluated by measuring the number of cells stained with DAPI.
Aβ has strong toxicity to neurons, and the death of neurons caused by Aβ accumulated in the brain is a major cause of Alzheimer's disease. To evaluate whether HN-1703 for inhibiting the mTOR signaling pathway and promoting autophagy may directly protect neurons from Aβ toxicity, an inhibitory effect of HN-1703 on Aβ-induced apoptosis of primary cultured cerebral neurons was evaluated, and the number of live cells stained with DAPI was quantified and shown in FIGS. 5A and 5B.

[3] = tested on: 5xFAD transgenic mice; assay: Autophagy activation in neurons and microglia (Iba-1/MAP2/LC3 staining); format: in vivo; conditions: FIG. 16
Protocol: as §1
A brain slice immunostaining method was modified and used as described in Heo H et al. (J Ethnopharmacol, 2009). Mice were transcardially perfused with 4% PFA. After being immersed and fixed in 4% PFA for 4 hours, the brain tissue was unfrozen in 30% sucrose, frozen in an optimal cutting temperature (OCT) mixture, and stored at −80° C. Brain tissue slices were sectioned in a coronal direction at a thickness of 35 μm. The brain tissue slices were immersed in a storage solution (30% glycerol, 30% ethylene glycol, PBS) and stored at 4° C. The stored brain slices were permeabilized in 0.5% Triton X-100 for 20 minutes and shaken in 2 N HCl for 30 minutes at 37° C. Then, the brain slices were blocked in a free-floating state for 2 hours in 15% standard serum, 3% bovine serum albumin (BSA, bio-WORLD, Dublin, OH, USA) and 0.1% Triton X-100. The slices were shaken with a first antibody for 16 hours at 4° C. Thereafter, a second antibody complementary to the first antibody was attached at room temperature (22±1° C.) for 45 minutes. Then, the nuclei were washed with physiological saline (PBS) containing 1 μg/ml PI (propidiumiodide, Sigma) or DAPI (1:4000), and then placed on a slide glass and sealed using an aqueous mount, and observed under a confocal scanning microscope for tissue observation (LSM 810 Carl Zeiss, Oberkochen, Germany). […]
FIG. 16 illustrates confocal scanning micrographs of the hippocampal dentate gyrus region after triple staining with an Iba-1 antibody, an MAP2 antibody, and an LC3 antibody, and quantifying the number of LC3+/MAP2+ cells, the number of LC3+/Iba-1+ cells, the number of MAP2+ cells, and the number of Iba-1+ cells.

[4] = tested on: 5xFAD transgenic mice; assay: Autophagy indicators in brain (LC3/GFAP and LC3/MAP2 staining, LC3 immunoblot); format: in vivo
Protocol: as §1
A brain slice immunostaining method was modified and used as described in Heo H et al. (J Ethnopharmacol, 2009). Mice were transcardially perfused with 4% PFA. After being immersed and fixed in 4% PFA for 4 hours, the brain tissue was unfrozen in 30% sucrose, frozen in an optimal cutting temperature (OCT) mixture, and stored at −80° C. Brain tissue slices were sectioned in a coronal direction at a thickness of 35 μm. The brain tissue slices were immersed in a storage solution (30% glycerol, 30% ethylene glycol, PBS) and stored at 4° C. The stored brain slices were permeabilized in 0.5% Triton X-100 for 20 minutes and shaken in 2 N HCl for 30 minutes at 37° C. Then, the brain slices were blocked in a free-floating state for 2 hours in 15% standard serum, 3% bovine serum albumin (BSA, bio-WORLD, Dublin, OH, USA) and 0.1% Triton X-100. The slices were shaken with a first antibody for 16 hours at 4° C. Thereafter, a second antibody complementary to the first antibody was attached at room temperature (22±1° C.) for 45 minutes. Then, the nuclei were washed with physiological saline (PBS) containing 1 μg/ml PI (propidiumiodide, Sigma) or DAPI (1:4000), and then placed on a slide glass and sealed using an aqueous mount, and observed under a confocal scanning microscope for tissue observation (LSM 810 Carl Zeiss, Oberkochen, Germany).
The first antibody used antibodies such as LC3-II (MBL, PM036), MAP2 (sigma, m4403) [for LC3/MAP2 double staining], 6E10 (biolegend, 803001) [for LC3/6E10; ICC double staining], GFAP (abcam, ab53554) [for LC3/GFAP double staining], Iba-1 (wako, 011-27991) [for LC3/IBA1 double staining], Iba-1 (Wako, 019-19741) [for ThioS/Iba1/PI triple staining], Sox2 (R&D system, MAB2018) [for SOX2/DCX/NeuN triple staining], DCX (Santa Cruz, sc8066) [for SOX2/DCX/NeuN triple staining], AT8 (Invitrogen, MN1020) [for AT8/MAP2 double staining], MAP2 (abcam, ab32454) [for AT8/MAP2 double staining], NeuN (Millipore, MAB377B), Tuj1 (Sigma, T8660), Nestin (Millipore, MAB353), GFAP (Chemicon), and the like, and the second antibody used Alexa 488, Cy3, Alexa 488 (Invitrogen, A21202), Cy3 (Jackson lab, 715-165-151), and Alexa 488 (Jackson lab, 711-546-152).
When PS1 was KO, lysosome acidification was weakened and autophagy was inhibited (Lee et al. (2010) Cell 141: 1146-1158), and in 5xFAD mice with mutations in PS1, the generation of autophagy was somewhat attenuated and may be activated in the presence of endogenous WT PS1. In other words, there were example in which cellular conditions that inhibit mTOR, such as lack of amino acids, or suppression of inflammation activated autophagy, and treatment with a cAMP or β-adrenergic agonist restored lysosomal acidification in PS1 mutant cells (Coffey et al. (2014) Neuroscience 263: 111-124). […]

Structure (SMILES): COc1cc(OC)c2c(=O)c3cc4c(cc3oc2c1)OCO4 [HN-1703, 7,9-dimethoxy-10H-[1,3]dioxolo[4,5-b]xanthen-10-one]
- Iba-1 staining (activated microglia) [1]: significantly reduced
- cell viability (number of live cells stained with DAPI) under Aβ toxicity [2]: viability was significantly increased
- activated microglia, Iba-1+ cells ([3]; 5 to 20 mg/kg, compared to the 5xFAD-DMSO control group): greatly reduced
- number of neurons double-stained with MAP2 and LC3-II [3]: increased in a dose-dependent manner
- number of MAP2+ neurons in the dentate gyrus ([3]; approaches the WT normal group): increased in a dose-dependent manner
- autophagy-activated microglia double-stained with LC3-II ([3]; compared to the 5xFAD-DMSO control group, dose-dependent): increased twice or more
- LC3-II staining ([4]; 5 mg/kg to 10 mg/kg, FIG. 12): stained at the level of a WT normal group
- LC3-II increase compared to the 5xFAD-DMSO control group ([4]; 20 mg/kg, FIG. 12): 2.5 times
- LC3-II increase compared to the WT normal group ([4]; 20 mg/kg, FIG. 12): 1.4 times
- LC3-II staining in the axon of the hippocampal pyramidal neuron ([4]; 20 mg/kg, FIG. 13): recovered to the level of the WT normal group
- autophagic vacuoles near the nuclei of large neurons in the subgranular cell layer of the hippocampus ([4]; FIG. 14): significantly increased
- ratio of the autophagy activation marker LC3-II/LC3-I (brain immunoblot) ([4]; FIG. 15): increased
- LC3-II staining ([4]; hippocampal dentate gyrus, compared to a 5xFAD-DMSO control group, FIG. 12): increased in a dose-dependent manner
- astrocytes stained with the GFAP antibody ([4]; increased in 5xFAD-DMSO vs WT, FIG. 12): decreased to a normal level
